Test [1] has as its system blood vessels in bFGF-enriched matrigel plugs. Nature of the test: In vivo matrigel-plug assay, agent mixed into matrigel. Set-up: species or system mice. The procedure: In vivo matrigel-plug assays. The matrigel-plug assay was performed as described in Maeshima et al., (Maeshima et al., J Biol Chem 275:21340-8, 2000; Maeshima et al., J Biol Chem 276:31959-68, 2001) with modifications as follows. Briefly, 500 μl of unpolymerized matrigel at a concentration of 10 mg/ml enriched with bFGF (250 ng/ml) were mixed with one of the following: PBS (vehicle), prothrombin, or TRAP. Each mixture was injected subcutaneously at the left lower abdominal wall of C57/B mice (5 to 6-week old; Jackson laboratories; Bar Harbor, Me.). At day ten, the mice were sacrificed. The matrigel plugs were then excised, fixed in 4% paraformaldehyde, embedded in paraffin, sectioned, and H&E stained. Sections were examined by light microscopy, and the total number of blood vessels from 10 high power fields (400×) were counted in a blinded fashion. Only the micro-vessels containing red blood cells were counted as positive. Results shown represent the average of counts from 4 to 5 matrigel plugs per group.

A further test deals with HUVEC cells. Nature of the test: In vitro angiogenesis (matrigel tube formation) assay. Format: cell-based, human. Here is the method: In Vitro Angiogenesis (matrigel tube formation) Assay. Unpolymerized matrigel (7 mg/ml) was placed in the wells (100 μl/well) of a pre-chilled 48-well cell culture plate and then incubated at 37° C. for 30-45 minutes. HUVEC cells were harvested in trypsin and resuspended in EC medium (4×10^4 in 300 μl). Cells were treated with the different agents before plated onto the matrigel-coated plates. […] Microphotographs of the center of each well at low power (40×) were taken with a SPOT camera (Diagnostic Instruments Inc; Sterling Heights, Mich.) and the aid of an imaging capture software (Compix Inc Imaging Systems; Township, Pa.). The microphotographs were quantitatively analyzed (total tube length) with the Simple PCI imaging analysis software (Compix).
Matrigel tube formation assays. Samples collected from the purification process were exchanged into 1×PBS and reconstituted into 1× concentration (by volume) compared to the input tPA/captopril-treated plasma. They were tested in the matrigel tube formation assays at 10% (v/v) as follows. Unpolymerized matrigel (7 mg/ml) was placed in the wells (100 μl/well) of a pre-chilled 48-well cell culture plate and then incubated at 37° C. for 30-45 minutes for polymerization to take place. […] Tube formation was examined (4× magnification) through an inverted phase contrast microscope (Nikon Corporation; Tokyo, Japan) and recorded by a Spot RT camera (Diagnostic Instruments Inc; Sterling Heights, Mich.) using an automated image capture software (Compix Inc Imaging Systems; Township, Pa.).

Test [2] concerns microvessels in bFGF-containing matrigel plugs. Nature of the test: In vivo angiogenesis (matrigel plug) assay, systemic treatment. The settings on record: rt-PA 60 μg subcutaneously/day, captopril 150 μg intraperitoneally/day, 10 days. Set-up: species or system mice. Here is the method: In Vivo Angiogenesis (Matrigel Plug) Assay. The matrigel-plug assay was performed as described in Maeshima et al., (Maeshima et al., J Biol Chem 275:21340-8, 2000; Maeshima et al., J Biol Chem 276:31959-68, 2001) with modifications as follows. All animal studies were reviewed and approved by the animal care and use committee of Beth Israel Deaconess Medical Center and are in accordance with the guidelines of the department of Health and Human Services. Five to six week-old male C57/BL6 mice (The Jackson Laboratories; Bar Harbor, Me.) were injected subcutaneously at the left lower abdominal wall with 0.5 ml of unpolymerized matrigel supplemented with 500 ng/ml of basic fibroblast growth factor for the stimulated controls and treatment groups and with equivalent volume of sterile PBS for the unstimulated (no b-FGF) control group. Mice (3 per group) were treated for 10 days with: 1) rt-PA (60 μg subcutaneously/day) and captopril (150 μg intraperitoneally/day). 2) Subcutaneous rt-PA alone with equivalent volume of intraperitoneal (IP) PBS. 3) IP captopril (150 μg) with equivalent volume of subcutaneous PBS. 4) Equivalent volumes of PBS (subcutaneously and intraperitoneally). […] Sections were examined by light microscopy, and the total number of blood vessels from 10 high power fields (400× magnification) were counted in a blinded fashion. […]

The next test concerns platelet aggregation. The following applies: phenylalanine to alanine mutation at position 2; cited from earlier work.
Test [3] has as its system 4T1 murine breast cancer cell line. Nature of the test: Primary tumor growth of transfected 4T1 cells in BALB/c mice. Format: in vivo. The settings on record: stable expression in 4T1 cells, mammary pad of BALB/c mice, vs empty vector, five weeks. From the text:
Construction of mutant uPA clones and cell transfection. We chose to pursue a genetic approach, in which we stably transfected an aggressive and highly metastatic murine breast cancer cell line (4T1) with the genes for wild type uPA, tPA and a receptor binding mutant of uPA (uPAm). We inserted the cDNA encoding murine tPA into pcDNA 3.1 (+) (Invitrogen), a CMV driven mammalian expression vector, by restriction enzyme digestion of BamHI and NheI. Wild type uPA cDNA was inserted to the pcDNA 3.1 (+) expression vector and the transfected into 4T1 cells in a similar fashion as described for the tPA cDNA. Residues 22, 27, 29 and 30 on the growth factor domain of the murine uPA molecule have been implicated in binding to mouse uPAR.
The pcDNA 3.1-tPA, pcDNA 3.1-wild type uPA, pcDNA 3.1-uPAm constructs, as well as an empty vector control were introduced into 4T1 cells by transfection using lipofectamine (Gibco-BRL) reagent. We selected 12-14 stable single clones in each group with 500 ug/mL of hygromycin. Each of the clones was evaluated for generation of the gene of interest by northern blot. The clones that had the highest generation of the genes of interest were selected. […]
Experiments using transfected tumor cells. […] Primary tumor size was measured every other day for a total of five weeks using calipers and calculated using the standard formula (width2×length×0.52). […]

As for “bFGF: basic fibroblast growth factor (Peprotech), proangiogenic stimulant”, in test [1] (250 ng/ml bFGF vs no bFGF), the “increase in angiogenesis in matrigel plugs” value is on record as “seven-fold increase”. Turning to SLIGKV, the “endothelial cell tube formation” value in the test on HUVEC cells (100 μM peptide) is “little effect on tube formation”. As to lepirudin, the “block of thrombin inhibition of tube formation” value in the test on HUVEC cells (10 U/ml thrombin with 200 U/ml lepirudin) is “completely blocked”. Also, in the test with HUVEC cells (lepirudin alone at 200 U/ml), the “endothelial cell tube formation” value is reported as “no effects in endothelial cell tube formation”. Also, the “block of prothrombin inhibition of tube formation” value in the test with HUVEC cells (prothrombin with 200 U/ml lepirudin) was “completely blocked”.

In the case of GYPGKF, the “endothelial cell tube formation” value in the test with HUVEC cells (100 μM peptide) is recorded as “little effect on tube formation”.

Consider SFLLRN, for which the “endothelial cell tube formation” value in the test on HUVEC cells (50 and 100 μM SFLLRN) is on record as “dose-dependent inhibitory effect on endothelial cell tube formation”. Consider thrombin, for which the “endothelial cell tube formation” value in the test on HUVEC cells (thrombin at 5 U/ml (FIGS. 11D, 11E: 1 and 5 U/ml)) is given as “minimal effects on endothelial cell tube formation”; with HUVEC cells (thrombin at 10 U/ml) it was “significantly inhibits tube formation”.

Consider `C[C@H](CS)C(=O)N1CCC[C@H]1C(=O)O` [captopril], for which the “inhibition of tube formation” value in the test on HUVEC cells (in the absence of plasma, rt-PA 1 μg/ml, captopril 0.1 μM) is “did not cause significant inhibition of tube formation”. In addition, the “microvessel counts in matrigel plugs” value in test [2] is on record as “did not show major reduction of neovascularization”. Consider SFLLRNPNDKYEPF [TRAP], for which, in the test on HUVEC cells (1, 10, 100 μM TRAP), the “endothelial cell tube formation” value is “dose-dependently inhibited endothelial cell tube formation”. Also, the “reduction of bFGF-stimulated blood vessel formation in matrigel plugs” value in test [1] (250 ng/ml bFGF, day 10, 10 ρg/ml prothrombin, 250 μM TRAP (FIG. 13)) is “significantly reduced”. Take SALLRN: the “endothelial cell tube formation” value with HUVEC cells (100 μM peptide) is “no inhibitory effect”. The “ability to induce platelet aggregation in vitro” value in the test on platelet aggregation is “completely eliminated the ability of the peptide to induce platelet aggregation”. “wildtype uPA: murine wild type uPA expressed from pcDNA 3.1 in 4T1 cells”: the “inhibition of primary tumor growth” value in test [3] is reported as “significantly inhibit tumor cell growth”. As to Angiostatin, the “inhibition of tube formation” value in the test on HUVEC cells (10 μg/ml) and in the test with HUVEC cells (50 μg/ml) was “did not significantly inhibit tube formation” each time.

The values are drawn from patent US20050232925A1, “Protease activity of thrombin inhibits angiogenesis” (priority 2002, published 2005).
